According to patent publication US20190369122A1, “METABOLIC DISORDERS” (priority 2016, published 2019):

What was measured:
[1] = system: insulin signaling components; test: IRS and Akt in liver, muscle and WAT of CONVR mice; format: in vivo, mouse
Method: (§1) An intraperitoneal glucose tolerance test (using 1 g glucose per kg body weight) was then performed after a 4 h fast. Blood glucose levels were measured from tail blood using HemoCue201+analyzer (HemoCue, Angelholm, Sweden). Liver and plasma samples were collected after a 4 h fast. Mice were under isoflurane anesthesia and killed by cervical dislocation. Fresh liver was taken and snap-frozen in liquid nitrogen and stored at −80° C. until protein extraction.
(§2) Snap-frozen liver and harvested cells were lysed in buffer containing 50 mM Tris-HCl (pH 7.4), 150 mM NaCl, 1 mM EDTA, 1 mM Na3VO4, 20 mM NaF, 10 mM glycerophosphate, 1 mM PMSF, 10% glycerol, 1% Triton X-100 and protease inhibitor cocktail. For immunoprecipitation, the cell lysates were obtained in 0.3% CHAPS-containing lysis buffer, sonicated and centrifuged at 20,000 g for 15 min at 4° C., and the supernatant was incubated with 20 μl of anti-FLAG beads (Sigma) at 4° C. for 4 h under gentle agitation.

[2] = system: G6pase, Pepck, Srebp1c, Fasn, Irs1, Irs2; test: Hepatic gene expression in GF mice (real-time PCR); format: in vivo, mouse; conditions: 500 μg i.p. twice per day for 3 days
Method: as §1
Mouse liver was homogenized in RLT buffer with ([…] using TissueLyser (Qiagen, Hilden, Germany). RNA was isolated using the RNeasy Minikit (Qiagen) and reverse transcribed to synthesize cDNA using High Capacity cDNA Reverse Transcription Kit (Applied Biosystems, Foster City, Calif., USA) according to the manufacturer's protocol. Real-time PCR was performed using 1×SYBR Green Master Mix (Thermo Scientific, Waltham, Mass., USA) using the following primers.

[3] = target: T1, mTORC2 (Homo sapiens, UniProt P42345); test: mTORC2 kinase activity assay; format: biochemical
T1 construct: expressed in transfected cells; host or cells: HEK293
Method: HEK293 cells were transfected with 1 μg of HA Rictor and 0.5 μg of Flag mTOR for mTORC2 activity assay, lysed with 0.3% CHAPS-containing lysis buffer, sonicated and centrifuged at 20,000 g for 15 min at 4° C., and the supernatant was incubated with 2 μg of anti-HA antibody at 4° C. for overnight under gentle agitation. Immunocomplexes were then collected with protein A-Sepharose beads (RepliGen, Needham, Mass.) at 4° C. for 2 h and washed three times with 0.3% CHAPS-containing lysis buffer. […] Kinase reaction was started by adding 100 μM ATP for 15 min at 37° C. and stopped by adding 5× Laemmli buffer.

[4] = target: T2, p38γ (Homo sapiens, UniProt P53778); test: In vitro kinase assay; format: biochemical
T2 construct: purchased Abcam ab125651
T2 sequence (P53778 1-367): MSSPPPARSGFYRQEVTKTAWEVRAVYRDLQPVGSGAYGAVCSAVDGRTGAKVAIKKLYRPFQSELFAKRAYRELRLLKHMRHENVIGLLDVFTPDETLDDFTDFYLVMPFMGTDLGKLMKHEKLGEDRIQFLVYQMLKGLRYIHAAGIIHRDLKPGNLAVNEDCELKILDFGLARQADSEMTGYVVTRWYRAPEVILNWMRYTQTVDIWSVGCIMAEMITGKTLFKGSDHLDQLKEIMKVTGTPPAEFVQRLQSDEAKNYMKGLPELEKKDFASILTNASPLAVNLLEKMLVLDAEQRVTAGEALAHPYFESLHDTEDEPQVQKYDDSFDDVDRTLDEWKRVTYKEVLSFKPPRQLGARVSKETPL
Method: 400 ng of recombinant p62 (Abcam, ab95320) and 200 ng of recombinant p38γ (Abcam, ab125651) were incubated in a kinase assay buffer [25 mM MOPS (pH 7.2), 12.5 mM beta-glycerol-phosphate, 25 mM MgCl2, 5 mM EGTA, 2 mM EDTA and 1 mM DTT] for 15 min on ice.

[5] = system: mTORC1; test: mTOR modification in mTORC1 (Raptor immunoprecipitation), HEK293; format: cell-based, human
Method: as §2

[6] = system: IRS1; test: Ubiquitination of IRS1; format: cell-based; conditions: 6 h treatment
Method: Cells were lysed under denaturing condition with 100 μl buffer A containing 2% SDS, and the cell lysates were transferred to a 1.5-ml microcentrifuge tube. The tube was placed on a hot plate immediately at 95° C. for 10 min. The cell lysates were sonicated and 700 μl of buffer A without SDS was added. The samples were incubated at 4° C. for 30 min, followed by centrifugation (20,000 g, 20 min). The supernatant was incubated with 20 μl of anti-FLAG beads (Sigma) at 4° C. for 4 h under gentle agitation.

[7] = system: CONVR mice; test: Intraperitoneal glucose tolerance test in CONVR mice; format: in vivo, mouse; conditions: 100 μg i.p. twice per day for 3 days
Method: as §1

[8] = system: mTORC1-Rag heterodimer complex-p62; test: Immunoprecipitation of FLAG mTOR: p62/Rag GTPases/mTORC1 complex formation; format: cell-based, human; conditions: HEK293; 100 μM, absence of amino acids, 1 h
Method: as §2
HEK293 cells (ATCC CRL-1573) were grown and maintained in high-glucose (4.5 g/l glucose) DMEM with 10% (v/v) FBS. All HEK293 cell experiments were performed in serum-starved and amino acid-deprived conditions. 24 h after transfection (with plasmids or siRNA as indicated), HEK293 cells cultured in poly-L-lysine-coated 60 mm dishes were rinsed twice with DMEM without FBS and incubated in serum-free DMEM for 18 h. HEK293 cells were then washed once with EBSS and incubated in EBSS for 1 h.

[9] = Plasma levels after intraperitoneal injection in CONVR mice; format: in vivo, mouse; conditions: 100 μg i.p. twice per day for 3 days
Method: as §1
The samples were then reconstituted with 5% HCl in n-butanol at 70° C. for 1 h, allowing n-butyl ester to be formed. […] Samples (5 μl) were injected onto a C18 BEH column (2.1×100 mm with 1.7 μm particles; Waters, Milford, Mass.) using a gradient consisting of water with 0.1% formic acid (A-phase) and acetonitrile with 0.1% formic acid (B-phase). Mass spectrometric analysis was performed using an Infinity 1290 quaternary UPLC pump (Agilent, Santa Clara, Calif.) coupled to a QTRAP 5500 (ABSciex, Concord, Canada). […] For the internal standards, the transitions 206/81 and 204/93 were used.

What does the source list for O=C(O)CCc1cnc[nH]1 [imidazole propionate]?
basal Akt S473 phosphorylation in liver, muscle and WAT ([1]; 3-day injection vs vehicle): higher; IRS levels in liver, muscle or WAT ([1]; 3-day injections): did not reduce; hepatic Irs1 and Irs2 mRNA levels [2]: no significant changes; hepatic expression of Srebp1c and Fasn [2]: did not affect; hepatic expression of G6pase and Pepck ([2]; vs controls): significantly increased; in vitro mTORC2 kinase activity towards Akt [3]: not altered; p62 phosphorylation (T269 and S272) by p38γ ([4]; recombinant p38γ and p62, ATP 50 μM): enhanced; p38γ autophosphorylation ([4]; together with ATP): induced; modulation of mTORC1 ([5]; HEK293, 2 h incubation): specifically modulated; mTOR S2448 phosphorylation in mTORC1 ([5]; Raptor immunoprecipitation): strongly induced; mTOR S2481 phosphorylation in mTORC1 ([5]; Raptor immunoprecipitation): not; ubiquitination of IRS1 [6]: promoted; glucose tolerance [7]: impaired glucose tolerance; formation of the mTORC1-Rag heterodimer complex-p62 [8]: induced; effect on urocanate levels [9]: without affecting; increase of circulating concentrations of imidazole propionate [9]: around 4 fold
